Drawing on US20180170904A1, “PYRIDIN-3-YL ACETIC ACID DERIVATIVES AS INHIBITORS OF HUMAN IMMUNODEFICIENCY VIRUS REPLICATION” (priority 2015, published 2018), this text covers EC50 for 24 compounds.

Molecules are shown by their SMILES.

For the first test, the system named is NL-RLuc virus (recombinant NL4-3 proviral clone with Renilla Luciferase gene). The experiment in a line: Inhibition of HIV replication (NL-RLuc reporter virus in MT-2 cells). Format: cell-based. To be noted: Renilla, NL43, 120 h, read-out: Activity. From the text:
Inhibition of HIV replication: A recombinant NL-RLuc proviral clone was constructed in which a section of the nef gene from NL4-3 was replaced with the Renilla Luciferase gene. This virus is fully infectious and can undergo multiple cycles of replication in cell culture. In addition, the luciferous reporter provides a simple and easy method for quantitating the extent of virus growth and consequently, the antiviral activity of test compounds. The plasmid pNLRLuc contains the proviral NL-Rluc DNA cloned into pUC18 at the PvuII site. The NL-RLuc virus was prepared by transfection of 293T cells with the plasmid pNLRLuc. Transfections were performed using the LipofectAMINE PLUS kit from Invitrogen (Carlsbad, Calif.) according to the manufacturer and the virus generated was titered in MT-2 cells. For susceptibility analyses, the titrated virus was used to infect MT-2 cells in the presence of compound, and after 5 days of incubation, cells were processed and quantitated for virus growth by the amount of expressed luciferase. Assay media was RPMI 1640 supplemented with 10% heat inactivated fetal bovine serum (FBS), 100 units/ml penicillin G/100 units/ml streptomycin, 10 mM HEPES buffer pH 7.55 and 2 mM L-glutamine. The results from at least 2 experiments were used to calculate the EC50 values. Luciferase was quantitated using the Dual Luciferase kit from Promega (Madison, Wis.). Susceptibility of viruses to compounds was determined by incubation in the presence of serial dilutions of the compound. The 50% effective concentration (EC50) was calculated by using the exponential form of the median effect equation where (Fa)=1/[1+(ED50/drug conc.)^m] (Johnson V A, Byington R T. Infectivity Assay. In Techniques in HIV Research. ed. Aldovini A, Walker B D. 71-76. New York: Stockton Press.1990). Activity equal to A refers to a compound having an EC50≤100 nM, while B and C denote compounds having an EC50 between 100 nM and 1 uM (B) or >1 uM (C).
`CSc1ncc(-c2c(C)nc(C)c([C@H](OC(C)(C)C)C(=O)O)c2N2CCC(C)(C)CC2)cn1` [Example 42, (S)-2-(tert-Butoxy)-2-(4-(4,4-dimethylpiperidin-1-yl)-2,6-dimethyl-5-(2-(methylthio)pyrimidin-5-yl)pyridin-3-yl)acetic acid]: the EC50 is less than 0.1 µM. Regarding `Cc1nc(C)c([C@H](OC(C)(C)C)C(=O)O)c(N2CCC(C)(C)CC2)c1-c1ccc(C(=O)NC2CC2)cc1` [Example 43, (S)-2-(tert-Butoxy)-2-(5-(4-(cyclopropylcarbamoyl)phenyl)-4-(4,4-dimethylpiperidin-1-yl)-2,6-dimethylpyridin-3-yl)acetic acid], the EC50 is less than 0.1 µM.

On to `Cc1ccc(-c2c(C)nc(C)c([C@H](OC(C)(C)C)C(=O)O)c2N2CCC(C)(C)CC2)cc1C` [Example 44, (S)-2-(tert-Butoxy)-2-(5-(3,4-dimethylphenyl)-4-(4,4-dimethylpiperidin-1-yl)-2,6-dimethylpyridin-3-yl)acetic acid], for which the EC50 is less than 0.1 µM. Still for that read-out and setting: the result for `Cc1nc(C)c([C@H](OC(C)(C)C)C(=O)O)c(N2CCC(C)(C)CC2)c1-c1ccc(C(=O)O)c(C(=O)NCc2ccccc2)c1` [Example 45, (S)-2-(benzylcarbamoyl)-4-(5-(tert-butoxy(carboxy)methyl)-4-(4,4-dimethylpiperidin-1-yl)-2,6-dimethylpyridin-3-yl)benzoic acid] reads 0.1 to 1 µM. Same read-out and setting: with `Cc1nc(C)c([C@H](OC(C)(C)C)C(=O)O)c(N2CCC(C)(C)CC2)c1-c1ccc(-c2nnn[nH]2)cc1` [Example 46, (S)-2-(5-(4-(1H-Tetrazol-5-yl)phenyl)-4-(4,4-dimethylpiperidin-1-yl)-2,6-dimethylpyridin-3-yl)-2-(tert-butoxy)acetic acid] the figure was greater than 1 µM; with `Cc1nc(C)c([C@H](OC(C)(C)C)C(=O)O)c(N2CCC(C)(C)CC2)c1-c1cccc(-c2nnn[nH]2)c1` [Example 47, (S)-2-(5-(3-(1H-Tetrazol-5-yl)phenyl)-4-(4,4-dimethylpiperidin-1-yl)-2,6-dimethylpyridin-3-yl)-2-(tert-butoxy)acetic acid], greater than 1 µM.

On to `Cc1nc(C)c([C@H](OC(C)(C)C)C(=O)O)c(N2CCC(C)(C)CC2)c1-c1ccc(CC#N)cc1` [Example 48, (S)-2-(tert-Butoxy)-2-(5-(4-(cyanomethyl)phenyl)-4-(4,4-dimethylpiperidin-1-yl)-2,6-dimethylpyridin-3-yl)acetic acid], for which the EC50 is 0.1 to 1 µM.

`Cc1nc(C)c([C@H](OC(C)(C)C)C(=O)O)c(N2CCC(C)(C)CC2)c1-c1ccc(/C=C/C#N)cc1` [Example 49, (S,E)-2-(tert-Butoxy)-2-(5-(4-(2-cyanovinyl)phenyl)-4-(4,4-dimethylpiperidin-1-yl)-2,6-dimethylpyridin-3-yl)acetic acid]: the EC50 was in the range of 0.1 to 1 µM. On to `Cc1nc(C)c([C@H](OC(C)(C)C)C(=O)O)c(N2CCC(C)(C)CC2)c1-c1ccc(C(=O)CCc2ccc(F)cc2)cc1` [Example 50, (S)-2-(tert-Butoxy)-2-(4-(4,4-dimethylpiperidin-1-yl)-5-(4-(3-(4-fluorophenyl)propanoyl)phenyl)-2,6-dimethylpyridin-3-yl)acetic acid], for which the EC50 was less than 0.1 µM. With `Cc1nc(C)c([C@H](OC(C)(C)C)C(=O)O)c(N2CCC(C)(C)CC2)c1-c1ccc(C(O)CCc2ccc(F)cc2)cc1` (stereo partly drawn) [Example 51, (2S)-2-(tert-Butoxy)-2-(4-(4,4-dimethylpiperidin-1-yl)-5-(4-(3-(4-fluorophenyl)-1-hydroxypropyl)phenyl)-2,6-dimethylpyridin-3-yl)acetic acid], the EC50 is less than 0.1 µM. Same read-out and setting: the result for `Cc1nc(C)c([C@H](OC(C)(C)C)C(=O)O)c(N2CCC(C)(C)CC2)c1-c1ccc(CCCc2ccc(F)cc2)cc1` [Example 52, (S)-2-(tert-Butoxy)-2-(4-(4,4-dimethylpiperidin-1-yl)-5-(4-(3-(4-fluorophenyl)propyl)phenyl)-2,6-dimethylpyridin-3-yl)acetic acid] reads less than 0.1 µM; that for `Cc1nc(C)c([C@H](OC(C)(C)C)C(=O)O)c(N2CC(C)CC(C)C2)c1-c1ccc(C(=O)NCc2ccccc2)cc1` (stereo partly drawn) [Example 53], 0.1 to 1 µM. The same measure, in the same setting: the result for `Cc1nc(C)c([C@H](OC(C)(C)C)C(=O)O)c(N2CCC(C(F)(F)F)CC2)c1-c1ccc(C(=O)NCc2ccccc2)cc1` [Example 54, (S)-2-(5-(4-(Benzylcarbamoyl)phenyl)-2,6-dimethyl-4-(4-(trifluoromethyl)piperidin-1-yl)pyridin-3-yl)-2-(tert-butoxy)acetic acid] reads less than 0.1 µM; that for `Cc1nc(C)c([C@H](OC(C)(C)C)C(=O)O)c(N2CCC(C3CC3)C2)c1-c1ccc(C(=O)NCc2ccccc2)cc1` (stereo partly drawn) [Example 55, (2S)-2-(5-(4-(Benzylcarbamoyl)phenyl)-4-(3-cyclopropylpyrrolidin-1-yl)-2,6-dimethylpyridin-3-yl)-2-(tert-butoxy)acetic acid], less than 0.1 µM. Consider `CCC1(C)CCN(c2c(-c3ccc(C(=O)NCc4ccccc4)cc3)c(C)nc(C)c2[C@H](OC(C)(C)C)C(=O)O)CC1` [Example 56, (S)-2-(5-(4-(Benzylcarbamoyl)phenyl)-4-(4-ethyl-4-methylpiperidin-1-yl)-2,6-dimethylpyridin-3-yl)-2-(tert-butoxy)acetic acid], for which the EC50 is less than 0.1 µM. On to `Cc1nc(C)c([C@H](OC(C)(C)C)C(=O)O)c(N2CC(C)(C)C2)c1-c1ccc(C(=O)NCc2ccccc2)cc1` [Example 57, (S)-2-(5-(4-(Benzylcarbamoyl)phenyl)-4-(3,3-dimethylazetidin-1-yl)-2,6-dimethylpyridin-3-yl)-2-(tert-butoxy)acetic acid], for which the EC50 is greater than 1 µM. With `Cc1nc(C)c([C@H](OC(C)(C)C)C(=O)O)c(N2CCC(C)CC2)c1-c1ccc(C(=O)NCc2ccccc2)cc1` [Example 58, (S)-2-(5-(4-(Benzylcarbamoyl)phenyl)-2,6-dimethyl-4-(4-methylpiperidin-1-yl)pyridin-3-yl)-2-(tert-butoxy)acetic acid], the EC50 was less than 0.1 µM.

Consider `Cc1nc(C)c([C@H](OC(C)(C)C)C(=O)O)c(N2CC(C(C)C)C2)c1-c1ccc(C(=O)NCc2ccccc2)cc1` [Example 59, (S)-2-(5-(4-(Benzylcarbamoyl)phenyl)-4-(3-isopropylazetidin-1-yl)-2,6-dimethylpyridin-3-yl)-2-(tert-butoxy)acetic acid], for which the EC50 was greater than 1 µM. Still for that read-out and setting: with `COC1(C)CCN(c2c(-c3ccc(C(=O)NCc4ccccc4)cc3)c(C)nc(C)c2[C@H](OC(C)(C)C)C(=O)O)CC1` [Example 60, (S)-2-(5-(4-(Benzylcarbamoyl)phenyl)-4-(4-methoxy-4-methylpiperidin-1-yl)-2,6-dimethylpyridin-3-yl)-2-(tert-butoxy)acetic acid] the figure was less than 0.1 µM; with `Cc1nc(C)c([C@H](OC(C)(C)C)C(=O)O)c(N2CCC(C)(C#N)CC2)c1-c1ccc(C(=O)NCc2ccccc2)cc1` [Example 61, (S)-2-(5-(4-(Benzylcarbamoyl)phenyl)-4-(4-cyano-4-methylpiperidin-1-yl)-2,6-dimethylpyridin-3-yl)-2-(tert-butoxy)acetic acid], 0.1 to 1 µM; with `Cc1nc(C)c([C@H](OC(C)(C)C)C(=O)O)c(N2CCC(c3ccccc3)CC2)c1-c1ccc(C(=O)NCc2ccccc2)cc1` [Example 62, (S)-2-(5-(4-(Benzylcarbamoyl)phenyl)-2,6-dimethyl-4-(4-phenylpiperidin-1-yl)pyridin-3-yl)-2-(tert-butoxy)acetic acid], greater than 1 µM. Still for that read-out and setting: with `CC(C)=C1CCN(c2c(-c3ccc(C(=O)NCc4ccccc4)cc3)c(C)nc(C)c2[C@H](OC(C)(C)C)C(=O)O)CC1` [Example 63, (S)-2-(5-(4-(Benzylcarbamoyl)phenyl)-2,6-dimethyl-4-(4-(propan-2-ylidene)piperidin-1-yl)pyridin-3-yl)-2-(tert-butoxy)acetic acid] the figure was 0.1 to 1 µM; with `Cc1nc(C)c([C@H](OC(C)(C)C)C(=O)O)c(N2CCC(Cc3ccccc3)CC2)c1-c1ccc(C(=O)NCc2ccccc2)cc1` [Example 64, (S)-2-(5-(4-(Benzylcarbamoyl)phenyl)-4-(4-benzylpiperidin-1-yl)-2,6-dimethylpyridin-3-yl)-2-(tert-butoxy)acetic acid], 0.1 to 1 µM; with `Cc1nc(C)c([C@H](OC(C)(C)C)C(=O)O)c(N2CCC(C)(F)CC2)c1-c1ccc(C(=O)NCc2ccccc2)cc1` [Example 65, (S)-2-(5-(4-(Benzylcarbamoyl)phenyl)-4-(4-fluoro-4-methylpiperidin-1-yl)-2,6-dimethylpyridin-3-yl)-2-(tert-butoxy)acetic acid], less than 0.1 µM.

Still in this test, the particulars now being: Renilla, NL43, 120 h, read-out: EC50 μM.
With `Cc1nc(C)c([C@H](OC(C)(C)C)C(=O)O)c(N2CCC(C)(C)CC2)c1-c1ccc(CC#N)cc1` [Example 48, (S)-2-(tert-Butoxy)-2-(5-(4-(cyanomethyl)phenyl)-4-(4,4-dimethylpiperidin-1-yl)-2,6-dimethylpyridin-3-yl)acetic acid], the EC50 was found to be 0.109 µM. `Cc1nc(C)c([C@H](OC(C)(C)C)C(=O)O)c(N2CCC(C3CC3)C2)c1-c1ccc(C(=O)NCc2ccccc2)cc1` (stereo partly drawn) [Example 55, (2S)-2-(5-(4-(Benzylcarbamoyl)phenyl)-4-(3-cyclopropylpyrrolidin-1-yl)-2,6-dimethylpyridin-3-yl)-2-(tert-butoxy)acetic acid]: the EC50 worked out at 0.053 µM. For the compound `Cc1nc(C)c([C@H](OC(C)(C)C)C(=O)O)c(N2CC(C)(C)C2)c1-c1ccc(C(=O)NCc2ccccc2)cc1` [Example 57, (S)-2-(5-(4-(Benzylcarbamoyl)phenyl)-4-(3,3-dimethylazetidin-1-yl)-2,6-dimethylpyridin-3-yl)-2-(tert-butoxy)acetic acid], the EC50 worked out at 2.54 µM.
